Source: US20230085307A1, “PYRIDAZINONE COMPOUND AND HERBICIDE” (NISSAN CHEMICAL CORPORATION, priority 2019, published 2023)

What was measured:
late watergrass = test: Test Example 2: herbicidal activity, application during weed generation under submerged conditions (Table 17, symbol A); format: in vivo, late watergrass (Echinochloa oryzicola); details: AAH 320 g/ha; application during weed generation, submerged conditions
Summary of the method: (§1)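 In this pot test, flooded alluvial soil (water depth 4 cm) holds all three species sown as a mixture. Once seedlings have one to two leaves, the compound's emulsion, thinned with water to the intended dose, is poured on the water; grading follows after three weeks on the earlier criteria.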

Japanese bulrush = test: Test Example 2: herbicidal activity, application during weed generation under submerged conditions (Table 17, symbol B); format: in vivo, Japanese bulrush (Schoenoplectus juncoides); details: AAH 320 g/ha; application during weed generation, submerged conditions
Summary of the method: as §1

barnyard grass [1] = test: Test Example 3: herbicidal effect by foliage application, Wagner pot (Table 18, symbol H); format: in vivo, barnyard grass (Echinochloa crus-galli); details: 320 g/ha
Summary of the method: (§2)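 Plants were sown in alluvial soil held under 0.1–0.5 cm standing water and grown 14 days in a greenhouse at 25–30 °C. An emulsifiable formulation, water-diluted to the set dose, was then sprayed onto the foliage, and effects were scored three weeks later using previously defined criteria.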

rice flat sedge = test: Test Example 3: herbicidal effect by foliage application, Wagner pot (Table 18, symbol E); format: in vivo, rice flat sedge (Cyperus iria); details: 320 g/ha
Summary of the method: as §2

southern crabgrass = test: Test Example 4: herbicidal effect by soil treatment (Table 19, symbol F); format: in vivo, southern crabgrass (Digitaria ciliaris); details: 320 g/ha
Summary of the method: (§3)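 Three weeks of greenhouse growth at 25° C. to 30° C. followed a uniform surface spray of water-diluted emulsion at a predetermined herbicide amount. Seeds had been sown beforehand under about 1.5 cm of sterilized diluvial soil. Grading followed criteria set out in an earlier test.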

green foxtail [2] = test: Test Example 4: herbicidal effect by soil treatment (Table 19, symbol G); format: in vivo, green foxtail (Setaria viridis); details: 320 g/ha
Summary of the method: as §3

barnyard grass [3] = test: Test Example 4: herbicidal effect by soil treatment (Table 19, symbol H); format: in vivo, barnyard grass (Echinochloa crus-galli); details: 320 g/ha
Summary of the method: as §3

wild oat [4] = test: Test Example 4: herbicidal effect by soil treatment (Table 19, symbol I); format: in vivo, wild oat (Avena fatua); details: 320 g/ha
Summary of the method: as §3

Italian ryegrass [5] = test: Test Example 4: herbicidal effect by soil treatment (Table 19, symbol K); format: in vivo, Italian ryegrass (Lolium multiflorum); details: 320 g/ha
Summary of the method: as §3

velvetleaf [6] = test: Test Example 4: herbicidal effect by soil treatment (Table 19, symbol M); format: in vivo, velvetleaf (Abutilon theophrasti); details: 320 g/ha
Summary of the method: as §3

redroot pigweed [7] = test: Test Example 4: herbicidal effect by soil treatment (Table 19, symbol N); format: in vivo, redroot pigweed (Amaranthus retroflexus); details: 320 g/ha
Summary of the method: as §3

lambsquarters = test: Test Example 4: herbicidal effect by soil treatment (Table 19, symbol O); format: in vivo, lambsquarters (Chenopodium album); details: 320 g/ha
Summary of the method: as §3

chickweed [8] = test: Test Example 4: herbicidal effect by soil treatment (Table 19, symbol P); format: in vivo, common chickweed (Stellaria media); details: 320 g/ha
Summary of the method: as §3

green foxtail [9] = test: Test Example 5: herbicidal effect by foliage application, plastic box (Table 20, symbol G); format: in vivo, green foxtail (Setaria viridis); details: foliage application, 320 g/ha, evaluated three weeks after application
Summary of the method: (§4)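 Plants sown in sterilized diluvial soil and grown 14 days in a greenhouse at 25° C to 30° C, then sprayed on the foliage with the compound's emulsion diluted in water to a predetermined herbicide amount. Injury to weeds and crops scored three weeks after application on a visual rating scale.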

wild oat [10] = test: Test Example 5: herbicidal effect by foliage application, plastic box (Table 20, symbol I); format: in vivo, wild oat (Avena fatua); details: foliage application, 320 g/ha, evaluated three weeks after application
Summary of the method: as §4

blackgrass = test: Test Example 5: herbicidal effect by foliage application, plastic box (Table 20, symbol J); format: in vivo, blackgrass (Alopecurus myosuroides); details: foliage application, 320 g/ha, evaluated three weeks after application
Summary of the method: as §4

Italian ryegrass [11] = test: Test Example 5: herbicidal effect by foliage application, plastic box (Table 20, symbol K); format: in vivo, Italian ryegrass (Lolium multiflorum); details: foliage application, 320 g/ha, evaluated three weeks after application
Summary of the method: as §4

windgrass = test: Test Example 5: herbicidal effect by foliage application, plastic box (Table 20, symbol L); format: in vivo, windgrass (Apera spica-venti); details: foliage application, 320 g/ha, evaluated three weeks after application
Summary of the method: as §4

velvetleaf [12] = test: Test Example 5: herbicidal effect by foliage application, plastic box (Table 20, symbol M); format: in vivo, velvetleaf (Abutilon theophrasti); details: foliage application, 320 g/ha, evaluated three weeks after application
Summary of the method: as §4

redroot pigweed [13] = test: Test Example 5: herbicidal effect by foliage application, plastic box (Table 20, symbol N); format: in vivo, redroot pigweed (Amaranthus retroflexus); details: foliage application, 320 g/ha, evaluated three weeks after application
Summary of the method: as §4

chickweed [14] = test: Test Example 5: herbicidal effect by foliage application, plastic box (Table 20, symbol P); format: in vivo, common chickweed (Stellaria media); details: foliage application, 320 g/ha, evaluated three weeks after application
Summary of the method: as §4

persian speedwell = test: Test Example 5: herbicidal effect by foliage application, plastic box (Table 20, symbol R); format: in vivo, Persian speedwell (Veronica persica); details: foliage application, 320 g/ha, evaluated three weeks after application
Summary of the method: as §4

Structure (SMILES)	herbicidal effect rating, A: late watergrass (late watergrass)	herbicidal effect rating, B: Japanese bulrush (Japanese bulrush)	herbicidal effect on H (barnyard grass), rating 0-5 (barnyard grass [1])	herbicidal effect on E (rice flat sedge), rating 0-5 (rice flat sedge)	herbicidal effect rating, F: southern crabgrass (southern crabgrass)	herbicidal effect rating, G: green foxtail (green foxtail [2])	herbicidal effect rating, H: barnyard grass (barnyard grass [3])	herbicidal effect rating, I: wild oat (wild oat [4])	herbicidal effect rating, K: Italian ryegrass (Italian ryegrass [5])	herbicidal effect rating, M: velvetleaf (velvetleaf [6])	herbicidal effect rating, N: redroot pigweed (redroot pigweed [7])	herbicidal effect rating, O: lambsquarters (lambsquarters)	herbicidal effect rating, P: chickweed (chickweed [8])	herbicidal effect on G: green foxtail (green foxtail [9])	herbicidal effect on I: wild oat (wild oat [10])	herbicidal effect on J: blackgrass (blackgrass)	herbicidal effect on K: Italian ryegrass (Italian ryegrass [11])	herbicidal effect on L: windgrass (windgrass)	herbicidal effect on M: velvetleaf (velvetleaf [12])	herbicidal effect on N: redroot pigweed (redroot pigweed [13])	also measured
COCCOc1ccc(-c2sc3ccc(F)cc3c2-c2c(O)c(C)nn(C)c2=O)cc1 [2-056]	3 (Herbicidal rate of 40% or more and less than 70%)	3 (Herbicidal rate of 40% or more and less than 70%)	5 (Herbicidal rate of 90% or more (almost completely withered))	5 (Herbicidal rate of 90% or more (almost completely withered))	5 (Herbicidal rate of 90% or more (almost completely withered))	5 (Herbicidal rate of 90% or more (almost completely withered))	5 (Herbicidal rate of 90% or more (almost completely withered))	0 (Herbicidal rate of 5% or less (almost no effect))	0 (Herbicidal rate of 5% or less (almost no effect))	5 (Herbicidal rate of 90% or more (almost completely withered))	5 (Herbicidal rate of 90% or more (almost completely withered))	5 (Herbicidal rate of 90% or more (almost completely withered))	5 (Herbicidal rate of 90% or more (almost completely withered))	5 (Herbicidal rate of 90% or more (almost completely withered))	4 (Herbicidal rate of 70% or more and less than 90%)	5 (Herbicidal rate of 90% or more (almost completely withered))	4 (Herbicidal rate of 70% or more and less than 90%)	4 (Herbicidal rate of 70% or more and less than 90%)	5 (Herbicidal rate of 90% or more (almost completely withered))	5 (Herbicidal rate of 90% or more (almost completely withered))	herbicidal effect on P: chickweed (chickweed [14]): 5 (Herbicidal rate of 90% or more (almost completely withered)); herbicidal effect on R: persian speedwell (persian speedwell): 5 (Herbicidal rate of 90% or more (almost completely withered))
Cc1nn(C)c(=O)c(-c2c(-c3ccc(OCC4CC4)cc3)sc3ccc(F)cc23)c1O [2-060]	0 (Herbicidal rate of 5% or less (almost no effect))	3 (Herbicidal rate of 40% or more and less than 70%)	3 (Herbicidal rate of 40% or more and less than 70%)	5 (Herbicidal rate of 90% or more (almost completely withered))	3 (Herbicidal rate of 40% or more and less than 70%)	1 (Herbicidal rate of 5% or more and less than 20%)	3 (Herbicidal rate of 40% or more and less than 70%)	0 (Herbicidal rate of 5% or less (almost no effect))	0 (Herbicidal rate of 5% or less (almost no effect))	0 (Herbicidal rate of 5% or less (almost no effect))	5 (Herbicidal rate of 90% or more (almost completely withered))	4 (Herbicidal rate of 70% or more and less than 90%)	1 (Herbicidal rate of 5% or more and less than 20%)	3 (Herbicidal rate of 40% or more and less than 70%)	0 (Herbicidal rate of 5% or less (almost no effect))	3 (Herbicidal rate of 40% or more and less than 70%)	0 (Herbicidal rate of 5% or less (almost no effect))	4 (Herbicidal rate of 70% or more and less than 90%)	4 (Herbicidal rate of 70% or more and less than 90%)	5 (Herbicidal rate of 90% or more (almost completely withered))	herbicidal effect on P: chickweed (chickweed [14]): 5 (Herbicidal rate of 90% or more (almost completely withered)); herbicidal effect on R: persian speedwell (persian speedwell): 5 (Herbicidal rate of 90% or more (almost completely withered))
Cc1nn(C)c(=O)c(-c2c(-c3ccc(OCc4ccccc4)cc3)sc3ccc(F)cc23)c1O [2-062]	0 (Herbicidal rate of 5% or less (almost no effect))	3 (Herbicidal rate of 40% or more and less than 70%)	5 (Herbicidal rate of 90% or more (almost completely withered))	5 (Herbicidal rate of 90% or more (almost completely withered))	1 (Herbicidal rate of 5% or more and less than 20%)	3 (Herbicidal rate of 40% or more and less than 70%)	0 (Herbicidal rate of 5% or less (almost no effect))	0 (Herbicidal rate of 5% or less (almost no effect))	0 (Herbicidal rate of 5% or less (almost no effect))	1 (Herbicidal rate of 5% or more and less than 20%)	4 (Herbicidal rate of 70% or more and less than 90%)	3 (Herbicidal rate of 40% or more and less than 70%)	0 (Herbicidal rate of 5% or less (almost no effect))	5 (Herbicidal rate of 90% or more (almost completely withered))	0 (Herbicidal rate of 5% or less (almost no effect))	1 (Herbicidal rate of 5% or more and less than 20%)	1 (Herbicidal rate of 5% or more and less than 20%)	4 (Herbicidal rate of 70% or more and less than 90%)	3 (Herbicidal rate of 40% or more and less than 70%)	5 (Herbicidal rate of 90% or more (almost completely withered))	herbicidal effect on P: chickweed (chickweed [14]): 5 (Herbicidal rate of 90% or more (almost completely withered)); herbicidal effect on R: persian speedwell (persian speedwell): 5 (Herbicidal rate of 90% or more (almost completely withered))
